Read-outs that look alike come from different tables or passages of the source.
Assays:
Breast cancer cells = assay: Cancer cell line growth inhibition (SRB assay); assay type: cell-based; settings: Homo sapiens; MDA-MB-468; read-out: Cancer Cell Line GI50 Range MDA-MB-468
human PLK4 = molecular target: T1, human PLK4 (Homo sapiens, UniProt O00444); assay: PLK4 inhibition assay (indirect ELISA); assay type: biochemical; settings: 15 μM ATP
T1 construct: amino terminal GST fusion of residues 1-391 of human PLK4; made in house; host or cells: E. coli
T1 sequence (O00444 1-391): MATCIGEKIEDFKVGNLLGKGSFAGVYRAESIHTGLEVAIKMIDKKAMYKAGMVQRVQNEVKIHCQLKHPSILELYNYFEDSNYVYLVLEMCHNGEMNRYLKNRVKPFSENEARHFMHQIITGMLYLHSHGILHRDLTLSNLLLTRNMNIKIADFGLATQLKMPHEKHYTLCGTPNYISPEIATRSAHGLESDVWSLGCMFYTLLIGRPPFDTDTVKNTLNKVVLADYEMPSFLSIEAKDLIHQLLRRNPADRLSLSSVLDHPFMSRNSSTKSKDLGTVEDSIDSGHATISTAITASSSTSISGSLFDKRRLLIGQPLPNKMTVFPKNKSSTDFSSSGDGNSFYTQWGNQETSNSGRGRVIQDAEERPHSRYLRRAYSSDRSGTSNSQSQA
How it was run: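 Dephosphorylated GST-PLK4 (residues 1-391, E. coli; 4 nM) was preincubated 15 min with compound, then reacted 30 min with 15 μM ATP in HEPES pH 7.4, MgCl2, Brij 35 on MBP-coated plates. Phospho-MBP was detected by antibody/HRP ELISA at 450 nm; IC50 from 10-point titration by 4-parameter logistic fit, or single 10 μM % inhibition.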

TICs (Ovarian 2393A) = assay: Ovarian tumor-initiating cell growth inhibition (Alamar Blue); assay type: cell-based; settings: 144 h, 6 days, read-out: Tumor Initiating Cell GI50 Range Ovarain 2393A
Text: Materials and Methods: Non-tissue or tissue cultured treated T-75 flask and 96-well plates were purchased from VWR. Vitamin B-27 supplement, MEM NEAA (minimum essential medium non essential amino acids), sodium pyruvate, L-glutamine, N2 supplement, penicillin-streptomycin and fungizone/amphotericin B were obtained from Invitrogen. Lipid mixture, heparin and EGF were purchased from Sigma; bFGF from BD Biosciences. Tumor Initiating Cells (TICs) from colon were routinely maintained using non-tissue cultured treated T-75 flasks in DMEM:F12 medium containing 0.2×B-27 supplement, 4 ug/ml heparin, 1×MEM NEAA, 1× sodium pyruvate, 1 mM glutamine, 10 pg/ul bFGF, 20 pg/ul EGF, 1×N2 supplement, lipid mixture, penicillin-streptomycin and fungizone/amphotericin B. Ovarian TICs were routinely maintained using tissue cultured treated T-75 flasks in DMEM:F12 medium containing 1×B-27 supplement, 4 ug/ml heparin, 20 pg/ul bFGF, 20 pg/ul EGF and penicillin-streptomycin.
Assay Protocol: Compounds described herein were dissolved in DMSO and further diluted in cell culture medium for GI50 determination. Colon TICs were trypsinized and seeded into non-tissue cultured treated 96-well plates with 4,000 cells/well. After 24 h, compound was added into the cell culture at different concentrations, and the final concentration of DMSO was adjusted to 0.1%. Cells were then cultured at 37° C. for 9 days. Ovarian TICs were trypsinized and seeded into tissue cultured treated 96-well plates with 1,000 cells/well. After 24 h, compound was added into the cell culture at different concentrations, and the final concentration of DMSO was adjusted to 0.1%. Cells were then cultured at 37° C. for 6 days. Cell viability was assessed by Alamar Blue assay: 10 ul of Alamar Blue was added into each well. After 4 hours incubation at 37° C., fluorescence was recorded at excitation 544 and emission 590. GI50 (Growth inhibition) was calculated using GraphPad Prism 4.0 software.

[1] = system: ovarian cancer cells (PA-1); assay: Cancer cell line growth inhibition (SRB assay); assay type: cell-based; settings: read-out: Cancer Cell Line GI50 Range PA-1
human TTK = molecular target: T2, human TTK (Homo sapiens, UniProt P33981); assay: TTK inhibition assay (indirect ELISA); assay type: biochemical; settings: read-out: TTK IC50 Range
T2 construct: amino terminal GST fusion of full length human TTK; purchased Invitrogen
T2 sequence (P33981 1-857): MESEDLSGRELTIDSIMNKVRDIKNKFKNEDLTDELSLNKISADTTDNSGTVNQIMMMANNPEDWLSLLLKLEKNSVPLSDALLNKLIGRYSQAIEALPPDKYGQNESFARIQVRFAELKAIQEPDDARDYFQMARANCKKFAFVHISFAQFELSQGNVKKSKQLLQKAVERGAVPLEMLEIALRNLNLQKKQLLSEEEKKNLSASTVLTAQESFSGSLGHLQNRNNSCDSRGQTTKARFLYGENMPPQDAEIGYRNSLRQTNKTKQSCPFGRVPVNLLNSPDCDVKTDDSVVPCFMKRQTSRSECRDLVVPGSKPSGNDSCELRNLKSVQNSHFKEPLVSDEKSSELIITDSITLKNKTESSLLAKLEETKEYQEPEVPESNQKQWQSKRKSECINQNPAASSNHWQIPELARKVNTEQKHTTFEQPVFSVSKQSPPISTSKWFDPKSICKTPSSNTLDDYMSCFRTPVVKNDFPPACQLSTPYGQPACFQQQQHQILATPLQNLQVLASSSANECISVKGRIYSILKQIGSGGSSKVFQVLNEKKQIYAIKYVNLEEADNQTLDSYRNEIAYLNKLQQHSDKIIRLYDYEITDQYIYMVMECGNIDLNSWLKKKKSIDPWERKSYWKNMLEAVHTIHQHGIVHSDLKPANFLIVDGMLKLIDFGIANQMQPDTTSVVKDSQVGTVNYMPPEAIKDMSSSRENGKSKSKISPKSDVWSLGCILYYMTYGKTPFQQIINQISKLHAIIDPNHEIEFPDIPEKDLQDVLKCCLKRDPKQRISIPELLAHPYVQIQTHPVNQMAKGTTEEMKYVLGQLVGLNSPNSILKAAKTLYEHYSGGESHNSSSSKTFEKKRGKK

[2] = system: colon cancer cells (HCT116); assay: Cancer cell line growth inhibition (SRB assay); assay type: cell-based; settings: Homo sapiens, HCT-116, read-out: Cancer Cell Line GI50 Range HCT116
TICs (Colon 12) = assay: Colon tumor-initiating cell growth inhibition (Alamar Blue); assay type: cell-based; settings: 216 h, 9 days, read-out: Tumor Initiating Cell GI50 Range Colon 12
[3] = PA-1 ovarian cancer cells, SRB assay
[4] = HCT116 colon cancer cells, SRB assay

SMILES | GI50 (Breast cancer cells) | IC50 (human PLK4) | GI50 (TICs (Ovarian 2393A); Ovarian 2393A TICs) | GI50 ([1]; Homo sapiens, PA-1) | IC50 (human TTK) | GI50 [2] | GI50 (TICs (Colon 12); Colon 12 TICs) | GI50 (TICs (Ovarian 2393A); ovarian TICs, Alamar Blue) | GI50 [1, 3] | GI50 [2, 4] | GI50 (TICs (Colon 12); colon TICs, Alamar Blue)
CC(C)C[C@H](NC(=O)c1ccc2[nH]nc(-c3ccc(N4CCN(C5COC5)CC4)cc3)c2c1)c1ccccc1Cl [Example A299, (S)-N-(1-(2-chlorophenyl)-3-methylbutyl)-3-(4-(4-(oxetan-3-yl)piperazin-1-yl)phenyl)-1H-indazole-5-carboxamide] | < 100 nM | < 50 nM | < 100 nM | < 100 nM | < 100 nM | < 100 nM | < 100 nM |  |  |  | 
CN1CCC(Oc2ccc(-c3n[nH]c4ccc(C(=O)NC(c5ccccc5F)C5CC5)cc34)cc2)CC1 (stereo not drawn) [Example A136, N-(cyclopropyl(2-fluorophenyl)methyl)-3-(4-((1-methylpiperidin-4-yl)oxy)phenyl)-1H-indazole-5-carboxamide] |  | < 50 nM |  |  |  |  |  | < 100 nM | < 100 nM | < 100 nM | > 500 nM
CC[C@@H](NC(=O)c1ccc2[nH]nc(-c3ccc(OC4CCN(CCOC)CC4)cc3)c2c1)c1ccccc1Cl [Example A128, (R)-N-(1-(2-chlorophenyl)propyl)-3-(4-((1-(2-methoxyethyl)piperidin-4-yl)oxy)phenyl)-1H-indazole-5-carboxamide] |  | < 50 nM |  |  |  |  |  | 100 to 500 nM | 100 to 500 nM | < 100 nM | < 100 nM
O=CN1CCC(Oc2ccc(-c3n[nH]c4ccc(NC(=O)C(c5ccsc5)N5CCCC5)cc34)cc2)CC1 (stereo not drawn) [Example A118, N-(3-(4-((1-formylpiperidin-4-yl)oxy)phenyl)-1H-indazol-5-yl)-2-(pyrrolidin-1-yl)-2-(thiophen-3-yl)acetamide] |  | < 50 nM |  |  |  |  |  | < 100 nM | < 100 nM | < 100 nM | 100 to 500 nM
CN1CCC(Oc2ccc(-c3n[nH]c4ccc(C(=O)N[C@H](CCO)c5ccccc5)cc34)cc2Cl)CC1 [Example A202, (R)-3-(3-chloro-4-((1-methylpiperidin-4-yl)oxy)phenyl)-N-(3-hydroxy-1-phenylpropyl)-1H-indazole-5-carboxamide] |  | < 50 nM |  |  |  |  |  | 100 to 500 nM | < 100 nM | < 100 nM | 100 to 500 nM
CN1CCC(Oc2ccc(-c3n[nH]c4ccc(C(=O)NC(c5ccccc5)C5CC5)cc34)cc2Cl)CC1 (stereo not drawn) [Example A188, 3-(3-chloro-4-((1-methylpiperidin-4-yl)oxy)phenyl)-N-(cyclopropyl(phenyl)methyl)-1H-indazole-5-carboxamide] |  | < 50 nM |  |  |  |  |  | > 500 nM | 100 to 500 nM | 100 to 500 nM | > 500 nM
CC(C)OC(C(=O)Nc1ccc2[nH]nc(-c3ccc(OC4CCN(C)CC4)cc3)c2c1)c1ccccc1 (stereo not drawn) [Example A187, 2-isopropoxy-N-(3-(4-((1-methylpiperidin-4-yl)oxy)phenyl)-1H-indazol-5-yl)-2-phenylacetamide] |  | < 50 nM |  |  |  |  |  | > 500 nM | < 100 nM | < 100 nM | 100 to 500 nM
CN1CCC(Oc2ccc(-c3n[nH]c4ccc(C(=O)NC(c5ccsc5)C5CCCC5)cc34)cc2)CC1 (stereo not drawn) [Example A110, N-(cyclopentyl(thiophen-3-yl)methyl)-3-(4-((1-methylpiperidin-4-yl)oxy)phenyl)-1H-indazol-5-carboxamide] |  | < 50 nM |  |  |  |  |  | 100 to 500 nM | < 100 nM | < 100 nM | < 100 nM
CN1CCC(Oc2ccc(-c3n[nH]c4ccc(C(=O)N[C@H](CCO)c5ccccc5)cc34)cc2)CC1 [Example A137, (R)-N-(3-hydroxy-1-phenylpropyl)-3-(4-((1-methylpiperidin-4-yl)oxy)phenyl)-1H-indazole-5-carboxamide] |  | < 50 nM |  |  |  |  |  | 100 to 500 nM | 100 to 500 nM | < 100 nM | > 500 nM
CC(C)[C@H](NC(=O)c1ccc2[nH]nc(-c3ccc(OC4CCN(C=O)CC4)cc3)c2c1)c1ccccc1Cl [Example A334, (S)-N-(1-(2-chlorophenyl)-2-methylpropyl)-3-(4-((1-formylpiperidin-4-yl)oxy)phenyl)-1H-indazole-5-carboxamide] |  | < 50 nM | < 100 nM | < 100 nM | < 100 nM | < 100 nM | < 100 nM |  |  |  | 
CN1CCC(Oc2ccc(-c3n[nH]c4ccc(C(=O)N[C@@H](c5sccc5Cl)C5CC5)cc34)cc2)CC1 [Example A166, (R)-N-((3-chlorothiophen-2-yl)(cyclopropyl)methyl)-3-(4-((1-methylpiperidin-4-yl)oxy)phenyl)-1H-indazole-5-carboxamide] |  | < 50 nM |  |  |  |  |  | < 100 nM | < 100 nM | < 100 nM | < 100 nM
O=CN1CCC(Oc2ccc(-c3n[nH]c4ccc(C(=O)NC(c5ccsc5)C5CC5)cc34)cc2)CC1 (stereo not drawn) [Example A186, N-(cyclopropyl(thiophen-3-yl)methyl)-3-(4-((1-formylpiperidin-4-yl)oxy)phenyl)-1H-indazole-5-carboxamide] |  | < 50 nM |  |  |  |  |  | < 100 nM | < 100 nM | < 100 nM | < 100 nM
CN1CCC(Oc2ccc(-c3n[nH]c4ccc(C(=O)N[C@H](c5sccc5Cl)C5CC5)cc34)cc2)CC1 [Example A167, (S)-N-((3-chlorothiophen-2-yl)(cyclopropyl)methyl)-3-(4-((1-methylpiperidin-4-yl)oxy)phenyl)-1H-indazole-5-carboxamide] |  | < 50 nM |  |  |  |  |  | < 100 nM | 100 to 500 nM | < 100 nM | < 100 nM
CC[C@H](NC(=O)c1ccc2[nH]nc(-c3ccc(OC4CCN(C5COC5)CC4)cc3)c2c1)c1ccccc1Cl [Example A193, (S)-N-(1-(2-chlorophenyl)propyl)-3-(4-((1-(oxetan-3-yl)piperidin-4-yl)oxy)phenyl)-1H-indazole-5-carboxamide] |  | < 50 nM |  |  |  |  |  | 100 to 500 nM | < 100 nM | < 100 nM | < 100 nM
O=CN1CCC(Oc2ccc(-c3n[nH]c4ccc(NC(=O)C(c5ccccn5)C5CCCC5)cc34)cc2)CC1 (stereo not drawn) [Example A176, 2-cyclopentyl-N-(3-(4-((1-formylpiperidin-4-yl)oxy)phenyl)-1H-indazol-5-yl)-2-(pyridin-2-yl)acetamide] |  | < 50 nM |  |  |  |  |  | 100 to 500 nM | 100 to 500 nM | 100 to 500 nM | 100 to 500 nM
CC(C)[C@H](NC(=O)c1ccc2[nH]nc(-c3ccc(OC4CC5CCC(C4)N5C=O)cc3)c2c1)c1ccccc1Cl (stereo partly drawn) [Example A333] |  | < 50 nM | < 100 nM | < 100 nM | < 100 nM | < 100 nM | < 100 nM |  |  |  | 
